Laboratory results reported in US20060239915A1, “Labeled macrophage scavenger receptor antagonists for imaging cardiovascular diseases” (priority 2002, published 2006).
Like-named read-outs stand apart in the source and are kept apart here.

Experiments:
[1] = target: T1, MSRA on THP-1 cells (Homo sapiens, UniProt P21757); assay: Cell competition assay with 125I-imaging agent 2, THP-1 cells; settings: competition for binding of 125I imaging agent 2, THP-1 cells, n=3
T1 construct: Cells became adherent and expressed MSRA; endogenous in cells; host or cells: THP-1 (ECACC), differentiated with PMA
T1 sequence (P21757 1-451): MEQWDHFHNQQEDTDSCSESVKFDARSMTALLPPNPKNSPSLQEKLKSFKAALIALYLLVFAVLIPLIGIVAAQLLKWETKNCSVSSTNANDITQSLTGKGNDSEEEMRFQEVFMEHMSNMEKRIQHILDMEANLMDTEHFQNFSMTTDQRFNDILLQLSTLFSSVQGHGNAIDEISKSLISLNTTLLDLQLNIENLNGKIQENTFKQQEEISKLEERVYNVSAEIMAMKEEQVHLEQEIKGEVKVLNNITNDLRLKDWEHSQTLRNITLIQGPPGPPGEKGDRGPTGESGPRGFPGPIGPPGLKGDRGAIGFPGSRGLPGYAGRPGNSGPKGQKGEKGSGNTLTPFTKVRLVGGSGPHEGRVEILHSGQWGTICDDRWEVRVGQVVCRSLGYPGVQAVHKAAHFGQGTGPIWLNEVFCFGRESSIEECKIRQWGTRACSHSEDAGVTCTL
Description: Experiments were carried out on THP-1 cells. THP-1 cells (human monocyte ECACC) are suspension cells and were cultured in RPMI-1640 medium (Sigma, Cat no. R0883) containing penicillin/streptomycin (Sigma, Cat no. P4458), 2 mM glutamine (Sigma, Cat no. G7513) and 10% foetal bovine serum (FBS; Sigma, Cat no. F-7524). Cells were routinely passaged at 2×10^5 cells/ml in 162 cm^2 flasks. For assays with ^125I-acLDL, cells were seeded at 1×10^5 cells/well/ml in 24 well plates 4-6 days prior to assay and 400 ng/ml phorbol myristate acetate (PMA) added to differentiate THP-1 cells. Cells became adherent and expressed MSRA. For assays with ^125I imaging agent 2, THP-1 cells were seeded at 1.5×10^5 cells/well/ml in 24 well plates 4-6 days prior to assay with 400 ng/ml PMA.
(§1) Experiments were carried out in THP-1 and CHO-SRA cells to assess competition for binding of ^125I imaging agent 2 by acLDL, oxLDL and non-radioactive imaging agent 2.
THP-1 cells were cultured as described in Example 13 above.

[2] = target: T2, human SR-A on CHO-SRA cells (Homo sapiens, UniProt P21757); assay: Cell competition assay with 125I-imaging agent 2, CHO-SRA cells; settings: competition for binding of 125I imaging agent 2, CHO-SRA cells, n=3; read-out: Mean IC50 (one site competition)
T2 construct: expressed in transfected cells; host or cells: CHO (hamster ovary) cells, line CHO-SRA
T2 sequence (P21757 1-451): T1 sequence (P21757 1-451)
Description: as §1
CHO-SRA cells are adherent hamster ovary cells expressing human SR-A and were cultured in Hams F-12 medium containing penicillin/streptomycin, 2 mM glutamine, HEPES buffer (7 ml per 500 ml media), 3% filter-sterilised lipoprotein-deficient serum (LPDS; Sigma cat. no. S5394), 40 μM compactin/mevastatin (Sigma cat. no. M2537), 250 μM mevalonic acid lactone (Sigma cat. no. M4667), and 3 μg/ml acetylated LDL (AcLDL; Biogenesis, Cat no. 5685-3404). For assays with ^125I-acLDL, cells were seeded at 1×10^5 cells/well/ml in 24 well plates 24 hours prior to assay. For assays with ^125I imaging agent 2, CHO-SRA cells were seeded at 1.5×10^5 cells/well/ml in 24 well plates 24 hours prior to assay.

## O=C(Nc1ccc(I)cc1)c1cc(Br)ccc1NS(=O)(=O)c1ccc(Cl)cc1 [non-radioactive imaging agent 2]
[1]; read-out: Mean IC50 (two site kinetics, first value)
  IC50: 0.079 ± 0.02 µM
[1]; read-out: Mean IC50 (two site kinetics, second value)
  IC50: 14.5 ± 5.8 µM
[2]
  IC50: 30 ± 12 µM
